Measurements published in patent US20050090496A1, “Sulphonyl compounds with 5-ht6 receptor affinity” (priority 2002, published 2005).
Counter-ions that a name gives are not always drawn.

Target: T1, human cloned 5-HT6 receptors (Homo sapiens, UniProt P50406)
T1 construct: expressed in transfected cells
Test: affinity for the 5-HT6 receptor (procedures of WO98/27081)
Type: binding
From the text: Compounds can be tested following the procedures outlined in WO98/27081.

T1 sequence (P50406 whole entry): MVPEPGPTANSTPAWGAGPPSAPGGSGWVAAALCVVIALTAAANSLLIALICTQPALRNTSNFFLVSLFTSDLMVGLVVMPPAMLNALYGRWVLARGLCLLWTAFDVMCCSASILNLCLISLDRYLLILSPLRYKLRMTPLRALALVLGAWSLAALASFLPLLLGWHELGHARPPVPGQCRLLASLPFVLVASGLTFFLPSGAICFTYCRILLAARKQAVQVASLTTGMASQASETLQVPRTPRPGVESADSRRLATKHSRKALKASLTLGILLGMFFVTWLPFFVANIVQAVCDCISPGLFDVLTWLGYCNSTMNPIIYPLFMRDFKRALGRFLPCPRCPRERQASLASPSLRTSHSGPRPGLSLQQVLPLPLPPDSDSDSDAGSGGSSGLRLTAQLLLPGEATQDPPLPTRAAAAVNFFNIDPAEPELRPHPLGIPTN

O=S(=O)(c1cccc(Cl)c1)n1ccc2c(N3CCNCC3)ccnc21 [Example E1, 4[1-(3-Chlorobenzenesulfonyl)-1-pyrrolo[2,3-b]pyridin-4-yl]-piperazine hydrochloride]
Ki: < 10 nM
